Test results from patent US11390613B2, “Azole analogues and methods of use thereof” (UNIVERSITY OF CONNECTICUT, priority 2017, dated 2022).
In brackets after ≈: the same amount, converted by molar mass. Where two headings read alike, the source gives them in different places.

Experiments:
[1] = Metabolic half-life and clearance (HLM); type: in vitro ADME
CYP3A4 = CYP3A4 (Homo sapiens, UniProt P08684); test: CYP3A4 inhibition
Protocol: Additionally, CYP3A4 inhibition and P-glycoprotein (P-gp) efflux of each compound were evaluated.

[2] = tested on: primary murine Hh-dependent MB cell line (MERP); test: Antiproliferation in primary Hh-dependent MB cells (MERP); type: cell-based; settings: Mus musculus
Protocol: Secondary In Vitro Evaluation. Based on their activity in ASZ cells, several compounds were evaluated further in a primary murine Hh-dependent MB cell line (MERP).
(§1) General Information for Cell Culture Studies Protocols for general cell culture, qPCR, and Hh inhibition ASZ cells are as previously described.
(§2) General Information for Cell Culture Studies. Protocols for general cell culture, qPCR, and Hh inhibition ASZ cells are as previously described.

[3] = Parallel artificial membrane permeability assay (PAMPA); type: in vitro ADME; settings: passive permeability
Source text: (§3) Preliminary In Vitro Pharmacokinetic Assays.

Hh pathway = settings: background; read-out: IC50 (Hh pathway inhibitor); cited from earlier work
[4] = tested on: Gli1 mRNA levels in the murine BCC cell line ASZ-001 (Hh pathway); test: Hh pathway inhibition: endogenous Gli1 mRNA (qRT-PCR) in ASZ-001 cells; type: cell-based; settings: for IC50: Mus musculus
Protocol: Initial Hh inhibition studies.
as §1, §2
Gene Expression Assay Protocol (ASZ-001): Cells are seeded (10,000 cells per well; 100 μL total volume per well) in a 96-well tissue culture plate. After 24 h of incubation (37° C., 5% CO2), growth media was removed and replaced with low FBS media. Cells were incubated for an additional 24 h. After this time, DMSO (vehicle control) and liposomes (Aqueous Solution) were added to the wells. […]
Rt-PCR Protocol: Following treatment and incubation periods, both RNA extraction and cDNA synthesis were performed using a TaqMan Cells-to-CT (fast) kit. cDNA synthesis utilized a BioRad MyCycler and was programmed according to the manufacturer's instructions. Quantitative RT-PCR was performed on an ABI 7500 system and made use of the following TaqMan Gene Expression Probes: mouse ActB (Mm00607939_s1) and mouse Gli1 (Mm00494654_m1). Relative gene expression levels were computed via ΔΔCT method using GraphPad Prism. Corresponding IC50 values were calculated as mean±SEM for at least three separate experiments performed in triplicate.

P-glycoprotein (P-gp) = P-glycoprotein (P-gp) (Homo sapiens, UniProt P08183); test: P-glycoprotein (P-gp) efflux; type: in vitro ADME; settings: for P-gp: Table 9; for P-gp (Efflux): Table P1
Source text: as §3

BCRP = target: T1, BCRP (Homo sapiens, UniProt Q9UNQ0); test: BCRP efflux; type: in vitro ADME; settings: Table 9
T1 sequence (Q9UNQ0 1-655): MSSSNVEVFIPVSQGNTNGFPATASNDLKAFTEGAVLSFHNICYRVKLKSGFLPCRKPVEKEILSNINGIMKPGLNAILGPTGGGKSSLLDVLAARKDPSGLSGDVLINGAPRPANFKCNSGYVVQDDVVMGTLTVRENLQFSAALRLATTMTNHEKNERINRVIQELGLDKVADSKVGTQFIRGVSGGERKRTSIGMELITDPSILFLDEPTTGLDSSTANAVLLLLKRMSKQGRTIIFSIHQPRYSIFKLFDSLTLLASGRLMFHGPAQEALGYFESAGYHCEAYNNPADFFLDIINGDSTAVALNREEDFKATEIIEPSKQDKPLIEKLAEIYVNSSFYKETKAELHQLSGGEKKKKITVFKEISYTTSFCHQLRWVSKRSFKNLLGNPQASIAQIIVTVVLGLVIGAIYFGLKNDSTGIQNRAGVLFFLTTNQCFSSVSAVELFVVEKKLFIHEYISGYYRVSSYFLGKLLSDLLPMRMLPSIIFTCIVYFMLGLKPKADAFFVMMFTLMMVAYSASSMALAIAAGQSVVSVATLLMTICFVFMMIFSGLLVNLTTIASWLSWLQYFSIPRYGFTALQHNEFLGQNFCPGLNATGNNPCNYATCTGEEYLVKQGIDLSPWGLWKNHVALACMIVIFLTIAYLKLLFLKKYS
Source text: as §3

[5] = tested on: Gli1 mRNA levels in the murine BCC cell line ASZ-001 (Hh pathway); settings: background, read-out: IC50 (Hh signaling); cited from earlier work

Chain of CYP3A4 (P08684 whole entry): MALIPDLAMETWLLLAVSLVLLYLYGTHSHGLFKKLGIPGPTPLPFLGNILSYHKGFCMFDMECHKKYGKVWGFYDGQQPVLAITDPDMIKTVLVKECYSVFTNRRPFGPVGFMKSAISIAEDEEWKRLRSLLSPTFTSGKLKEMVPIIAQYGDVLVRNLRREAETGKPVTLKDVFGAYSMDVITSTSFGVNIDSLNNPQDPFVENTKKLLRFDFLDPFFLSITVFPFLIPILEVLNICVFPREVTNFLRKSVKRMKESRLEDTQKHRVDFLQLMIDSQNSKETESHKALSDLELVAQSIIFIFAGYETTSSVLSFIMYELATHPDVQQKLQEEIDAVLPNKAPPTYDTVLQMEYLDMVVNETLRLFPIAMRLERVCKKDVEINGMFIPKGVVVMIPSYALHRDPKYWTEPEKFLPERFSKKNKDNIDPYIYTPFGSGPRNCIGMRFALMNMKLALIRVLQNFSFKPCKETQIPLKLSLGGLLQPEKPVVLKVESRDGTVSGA
Chain of P-glycoprotein (P-gp) (P08183 whole entry): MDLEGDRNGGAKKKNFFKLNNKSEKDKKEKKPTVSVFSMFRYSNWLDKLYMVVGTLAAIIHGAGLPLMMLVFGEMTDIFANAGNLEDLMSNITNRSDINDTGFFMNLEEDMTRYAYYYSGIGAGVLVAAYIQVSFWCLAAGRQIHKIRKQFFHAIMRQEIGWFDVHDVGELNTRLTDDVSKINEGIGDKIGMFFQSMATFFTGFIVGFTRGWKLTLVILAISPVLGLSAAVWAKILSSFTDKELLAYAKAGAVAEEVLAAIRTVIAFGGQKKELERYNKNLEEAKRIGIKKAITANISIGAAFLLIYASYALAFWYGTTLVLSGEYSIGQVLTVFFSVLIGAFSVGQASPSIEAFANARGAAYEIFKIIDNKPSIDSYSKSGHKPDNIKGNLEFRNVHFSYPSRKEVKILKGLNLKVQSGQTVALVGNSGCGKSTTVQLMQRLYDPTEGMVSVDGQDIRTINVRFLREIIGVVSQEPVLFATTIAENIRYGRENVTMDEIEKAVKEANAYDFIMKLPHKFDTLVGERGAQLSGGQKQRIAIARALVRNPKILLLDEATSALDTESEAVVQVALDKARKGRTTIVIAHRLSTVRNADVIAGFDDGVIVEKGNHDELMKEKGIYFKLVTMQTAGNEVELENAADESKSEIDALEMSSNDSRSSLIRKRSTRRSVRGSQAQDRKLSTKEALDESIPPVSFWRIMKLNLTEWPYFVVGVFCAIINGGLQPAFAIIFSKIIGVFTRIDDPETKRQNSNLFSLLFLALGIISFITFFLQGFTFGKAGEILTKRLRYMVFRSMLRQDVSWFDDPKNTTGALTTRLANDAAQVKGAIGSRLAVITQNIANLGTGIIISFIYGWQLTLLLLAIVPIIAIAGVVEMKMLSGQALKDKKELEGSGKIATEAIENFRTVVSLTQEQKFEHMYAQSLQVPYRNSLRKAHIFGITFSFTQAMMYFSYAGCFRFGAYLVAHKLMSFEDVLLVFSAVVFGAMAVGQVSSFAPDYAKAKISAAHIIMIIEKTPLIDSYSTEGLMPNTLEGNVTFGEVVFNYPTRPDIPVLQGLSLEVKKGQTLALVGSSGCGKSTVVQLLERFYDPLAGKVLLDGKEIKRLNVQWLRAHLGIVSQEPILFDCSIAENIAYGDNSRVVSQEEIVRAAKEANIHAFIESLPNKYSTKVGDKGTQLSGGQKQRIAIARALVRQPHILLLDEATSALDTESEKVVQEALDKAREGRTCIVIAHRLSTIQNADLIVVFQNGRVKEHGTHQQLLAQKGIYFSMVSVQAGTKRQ

**Q.** With `C[C@]1(c2ccc(Cl)cc2Cl)OC[C@@H](COc2ccc(N3CCN(c4ccc(NC(=O)NN)cc4)CC3)cc2)O1` [Compound 40, N-(4-(4-(4-(((2S,4R)-2-(2,4-dichlorophenyl)-2-methyl-1,3-dioxolan-4-yl)methoxy)phenyl)piperazin-1-yl)phenyl)hydrazinecarboxamide] as the compound, how does the “T1/2 (HLM, min)” value [1] read?
**A.** The value was 11.5 ± 0.1 min.

**Q.** And the “Solubility” value (Solubility)?
**A.** The value was 1.4 nM (≈ 0.801 ng/mL).

**Q.** And the IC50 (CYP3A4)?
**A.** Its IC50 is over 30 µM.

**Q.** What about the IC50 ([2]; Table 8) of the same compound?
**A.** The IC50 was 2800 ± 900 nM.

**Q.** What does the source list for `C[C@]1(c2ccc(Cl)cc2Cl)OC[C@@H](COc2ccc(N3CCN(c4ccc(NC(=O)c5cccc(O)c5)cc4)CC3)cc2)O1` [Compound 30, N-(4-(4-(4-(((2S,4R)-2-(2,4-dichlorophenyl)-2-methyl-1,3-dioxolan-4-yl)methoxy)phenyl)piperazin-1-yl)phenyl)-3-hydroxybenzamide]?
**A.** T1/2 (HLM, min) [1]: did not significantly change; PAMPA [3]: Poor; Solubility (Solubility): 1.6 nM (≈ 1.02 ng/mL); IC50 (CYP3A4; read-out: CYP3A4, Table 9): 11.4 µM; IC50 ([2]; Table 6): 350 ± 60 nM

**Q.** Which IC50 (Hh pathway) does the source give for `CCC(C)n1ncn(-c2ccc(N3CCN(c4ccc(OCC5COC(Cn6cncn6)(c6ccc(Cl)cc6Cl)O5)cc4)CC3)cc2)c1=O` (centres unmarked) [ITZ, Itraconazole, reference compound] here?
**A.** The IC50 was 690 nM.

**Q.** And the “T1/2 (HLM, min)” value [1]?
**A.** Its value is 27.0 ± 6.2 min.

**Q.** And the IC50 ([4]; ASZ001, 48 h, read-out: IC50 (μM) 48 h)?
**A.** Its IC50 is 0.11 ± 0.025 µM.

**Q.** And the IC50 ([4]; ASZ001, 96 h, read-out: IC50 (μM) 96 h)?
**A.** Its IC50 is 0.14 ± 0.012 µM.

**Q.** And the PAMPA [3]?
**A.** The PAMPA was “Moderate”.

**Q.** What about the P-gp (P-glycoprotein (P-gp)) of the same compound?
**A.** Its P-gp is “No”.

**Q.** And the BCRP (BCRP)?
**A.** Its BCRP is “No”.

**Q.** And the “Solubility” value (Solubility)?
**A.** The value was 800 nM (≈ 565 ng/mL).

**Q.** With `C[C@@]1(c2ccc(Cl)cc2Cl)OC[C@@H](COc2ccc(N3CCN(c4ccc(NC(=O)NN)cc4)CC3)cc2)O1` [Compound 39, N-(4-(4-(4-(((2R,4R)-2-(2,4-dichlorophenyl)-2-methyl-1,3-dioxolan-4-yl)methoxy)phenyl)piperazin-1-yl)phenyl)hydrazinecarboxamide] as the compound, how does the “T1/2 (HLM, min)” value [1] read?
**A.** Its value is 20.1 ± 0.6 min.

**Q.** What about the “Solubility” value (Solubility) of the same compound?
**A.** Its value is 9.3 nM (≈ 5.32 ng/mL).

**Q.** What about the IC50 (CYP3A4) of the same compound?
**A.** Its IC50 is over 30 µM.

**Q.** And the IC50 ([2]; Table 8)?
**A.** The IC50 was 500 ± 400 nM.

**Q.** For `CC[C@@H]([C@H](C)O)n1ncn(-c2ccc(N3CCN(c4ccc(OC[C@@H]5CO[C@@](Cn6cncn6)(c6ccc(F)cc6F)C5)cc4)CC3)cc2)c1=O` [PSZ, Posaconazole], which IC50 [5] is on record?
**A.** The IC50 was 540 nM.

**Q.** What about the IC50 ([4]; ASZ001, 48 h) of the same compound?
**A.** The IC50 was 0.5 ± 0.1 µM.

**Q.** And the “P-gp (Efflux)” value (P-glycoprotein (P-gp))?
**A.** Its value is “substrate for P-gp”.

**Q.** For `C[C@]1(c2ccc(Cl)cc2Cl)OC[C@@H](COc2ccc(N3CCN(c4ccc(NC(=O)c5cccnc5)cc4)CC3)cc2)O1` [Compound 18, N-(4-(4-(4-(((2S,4R)-2-(2,4-dichlorophenyl)-2-methyl-1,3-dioxolan-4-yl)methoxy)phenyl)piperazin-1-yl)phenyl)nicotinamide], which “T1/2 (HLM, min)” value [1] is on record?
**A.** Its value is “significantly different half-lives”.

**Q.** And the PAMPA [3]?
**A.** The PAMPA was “Poor”.

**Q.** And the P-gp (P-glycoprotein (P-gp))?
**A.** The P-gp was “No”.

**Q.** And the BCRP (BCRP)?
**A.** Its BCRP is “No”.

**Q.** What about the “Solubility” value (Solubility) of the same compound?
**A.** The value was 6.9 nM (≈ 4.27 ng/mL).

**Q.** What about the IC50 ([2]; Table 6) of the same compound?
**A.** The IC50 was 1100 ± 600 nM.

**Q.** For `C[C@@]1(c2ccc(Cl)cc2Cl)OC[C@@H](COc2ccc(N3CCN(c4ccc(NC(=O)c5cccnc5)cc4)CC3)cc2)O1` [Compound 13, N-(4-(4-(4-(((2R,4R)-2-(2,4-dichlorophenyl)-2-methyl-1,3-dioxolan-4-yl)methoxy)phenyl)piperazin-1-yl)phenyl)nicotinamide], which “T1/2 (HLM, min)” value [1] is on record?
**A.** The value was “significantly different half-lives”.

**Q.** And the PAMPA [3]?
**A.** Its PAMPA is “Poor”.

**Q.** What about the “Solubility” value (Solubility) of the same compound?
**A.** Its value is 4.2 nM (≈ 2.6 ng/mL).

**Q.** And the IC50 ([2]; Table 6)?
**A.** Its IC50 is over 10000 nM.

**Q.** For `CC[C@@H](C)n1ncn(-c2ccc(N3CCN(c4ccc(OC[C@@H]5CO[C@@](C)(c6ccc(F)cc6F)C5)cc4)CC3)cc2)c1=O` [Compound P1, 2-((R)-sec-butyl)-4-(4-(4-(4-(((3R,5R)-5-(2,4-difluorophenyl)-5-methyltetrahydrofuran-3-yl)methoxy)phenyl)-piperazin-1-yl)phenyl)-2,4-dihydro-3H-1,2,4-triazol-3-one], which “times more potent than PSZ” value ([4]; ASZ cells, IC50 ratio vs PSZ) is on record?
**A.** Its value is 2.5 times.

**Q.** What about the IC50 ([4]; ASZ001, Table P1, ASZ cells, Gli1 mRNA, 48 h incubation, read-out: IC50) of the same compound?
**A.** The IC50 was 0.19 µM.

**Q.** And the “P-gp (Efflux)” value (P-glycoprotein (P-gp))?
**A.** The value was “No Efflux”.

**Q.** What about the “CYP3A4 IC50 (μM)” value (CYP3A4; Table P1) of the same compound?
**A.** The value was “decreased CYP3A4 inhibition”.

**Q.** What about the IC50 (CYP3A4; human) of the same compound?
**A.** Its IC50 is over 20 µM.

**Q.** And the IC50 ([2]; Table P1)?
**A.** The IC50 was 610 ± 120 nM.

**Q.** Which results are given for `CC(=O)c1cccc(C(=O)Nc2ccc(N3CCN(c4ccc(OC[C@@H]5CO[C@](C)(c6ccc(Cl)cc6Cl)O5)cc4)CC3)cc2)c1` [Compound 34, 3-acetyl-N-(4-(4-(4-(((2S,4R)-2-(2,4-dichlorophenyl)-2-methyl-1,3-dioxolan-4-yl)methoxy)phenyl)piperazin-1-yl)phenyl)benzamide]?
**A.** T1/2 (HLM, min) [1]: 11.4 ± 0.06 min; Solubility (Solubility): 1.4 nM (≈ 0.925 ng/mL); IC50 (CYP3A4): > 30 µM; GI50 ([2]; Table 7): 1000 ± 300 nM
